Measurements from article PMC12567141, “Design, Synthesis and Biological Evaluation of Pyrazolopyrimidine Derivatives as Aryl Hydrocarbon Receptor Antagonists for Colorectal Cancer Immunotherapy” (Pharmaceutics, 2025).

Tests used:
[1] = test system: MC38/Luc cells; test: Cytotoxic T lymphocyte (CTL) assay; format: cell-based; details: splenocytes of treated tumour-bearing mice, effector:target 10:1, luciferase activity
Description: Splenocytes were collected from tumour-bearing mice and stimulated with a cell activation cocktail (BioLegend) for 6 h. MC38/Luc cells as target cells were seeded in black, clear-bottomed 96-well plates (1 × 10^4 cells). After overnight incubation, splenocytes as effectors were added into wells containing target cells at an effector to target ratio of 10:1. LLC/Luc and CT26/Luc cells were used as negative target cells. Eleven hours later, luciferase activity was measured with an IVIS Lumina III instrument (PerkinElmer, Waltham, MA, USA).

[2] = test system: AhR nuclear translocation in MC38 cells; test: Kynurenine-induced AhR nuclear translocation (Western blot); format: cell-based; details: kynurenine-treated MC38 cells, 24 h
Description: Cells were harvested and washed twice in cold PBS. Cytoplasmic and nuclear protein were isolated by NE-PER^TM (Thermo Fisher Scientific, Waltham, MA, USA). The procedure was completed according to the kit instructions.
(§1) For the extraction of total protein, cells were treated with 7k for 24 h in a CO2 incubator at 37 °C and washed twice with phosphate-buffered saline (PBS). Cell pellets were lysed using radioimmunoprecipitation assay (RIPA) buffer (Thermo Fisher Scientific) containing a protease and phosphatase inhibitor cocktail kit (Thermo Fisher Scientific). The lysed cells were briefly vortexed at intervals and subsequently centrifuged at 13,000× g at 4 °C. The protein sample was quantified with the bicinchoninic acid (BCA) protein assay kit (Thermo Fisher Scientific).
Equal amounts of proteins were loaded onto 10% sodium dodecyl sulfate polyacrylamide gel electrophoresis and transferred onto PVDF membranes (Millipore, Billerica, MA, USA). The membrane was blocked with 5% skim milk in Tris-buffered saline (TBS) containing Tween-20 (TBS-T) for an hour and probed with the respective primary antibodies in 5% BSA overnight at 4 °C. Following incubation, the membrane was probed with horseradish peroxidase (HRP)-conjugated secondary antibodies for an hour at room temperature. […]

[3] = test system: p53/p21/caspase-3 signaling pathway in MC38 and CT26 cells; test: Western blot of apoptosis-regulating proteins; format: cell-based; details: 24 h
Description: as §1
Equal amounts of proteins were loaded onto 10% sodium dodecyl sulfate polyacrylamide gel electrophoresis and transferred onto PVDF membranes (Millipore, Billerica, MA, USA). The membrane was blocked with 5% skim milk in Tris-buffered saline (TBS) containing Tween-20 (TBS-T) for an hour and probed with the respective primary antibodies in 5% BSA overnight at 4 °C. Following incubation, the membrane was probed with horseradish peroxidase (HRP)-conjugated secondary antibodies for an hour at room temperature. The membrane was washed three times with TBS-T and the signal was visualized using an enhanced chemiluminescence (ECL) detection reagent (GE Healthcare Life Sciences, Pittsburgh, PA, USA).
The primary antibodies used were as follows: Total p53 (Santa Cruz Biotechnology, Dallas, TX, USA, working dilution 1:500), PARP (CST, Danvers, MA, USA; working dilution 1:1000), cleaved caspase3 (CST, MA, USA; working dilution 1:1000), p21 (CST, MA, USA; working dilution 1:1000), Bcl-2 (CST, MA, USA; working dilution 1:1000), AhR (Santa Cruz; working dilution 1:500), LaminB1 (CST, MA, USA; working dilution 1:2000), GAPDH (Abcam, Cambridge, UK; working dilution 1:5000) and β-actin (CST, MA, USA; dilution 1:5000). HRP-conjugated secondary antibodies used were as follows: anti-mouse (CST, MA, USA) and anti-rabbit (CST, MA, USA).

[4] = test system: HCT-116 cells; test: Clonogenic assay; format: cell-based; details: colorectal cancer cells vs vehicle-treated cells
Description: Cells were plated into 6-well plates and left for 48 h. After treatment with 5, 10 μM 7k for 24 h, the drug-containing medium was discarded, and cells were washed twice with PBS and left in complete culture medium for the time corresponding to six doublings. Finally, cells were fixed in 4% Paraformaldehyde (PFA) solution and stained with 0.05% crystal violet.

[5] = test system: colorectal cancer cells; test: Cell viability assay (CCK-8), colorectal cancer cells; format: cell-based; details: 24 h
Description: Chinese hamster ovary CHO cells, mouse fibroblast L929 cells, normal colon CCD18-Co cells, monkey kidney fibroblast COS-7 cells, colorectal cancer cells including HCT-116, RKO, SW480, SW620, CT26, and MC38 cells were purchased from ATCC (American Type Culture Collection). CHO, L929, Cos-7, and all cancer cells were maintained in RPMI 1640 or DMEM supplemented with 10% FBS (Gibco FBS; Thermo Fisher Scientific, Hanover Park, IL, USA) and 1% streptomycin/penicillin. CCD18-Co cells were cultured in high-glucose Dulbecco modified Eagle medium containing 10% FBS and 1% streptomycin/penicillin. All cells were grown in 5% CO2 at 37 °C. Mycoplasma testing was regularly performed every month using the BioMycoX Mycoplasma PCR Detection Kit (CellSafe, Yongin, Republic of Korea).
Cell viability was analyzed using a Cell Counting Kit-8 (Dojindo molecular technologies, Rockville, MD, USA). Cells were seeded in 96-well plates and treated with different concentrations of 7k. At the indicated time points, CCK-8 (10 μL/well) reagents were added to the cells, followed by further incubation at 37 °C for 90 min. The absorbance at 450 nm was measured using a plate reader (BioTek instruments, Winooski, VT, USA).

[6] = test system: PD-L1 expression in MC38 and CT26 cancer cells; test: PD-L1 expression by FACS in IFNγ-treated colorectal cancer cells; format: cell-based
Description: For analysis of PD-L1 expression in colorectal cancer cells, MC38 in 24-well plates were treated with IFNγ (10 ng/mL) for 24 h and incubated with 5 and 10 μM for 24 h. Cells were collected and stained with APC-conjugated PD-L1 Ab at 4 °C for 30 min (BioLegend). After washing with FACS buffer (Biolegend) three times, the cells were analysed using Becton Dickinson LSRFortessa^TM and analyzed with FlowJo software. Isotype-matched monoclonal antibodies were used as controls. The data were analysed using Flowjo analysis software (FlowJo LLC, Ashland, OR, USA).

[7] = test system: AhR; test: AhR antagonist screening using Tg(cyp1a:egfp) zebrafish; format: in vivo; parameters: key to AhR Antagonist Activity at 100 nM: - no inhibition; + weak; ++ mild; +++ moderate; ++++ high; +++++ very high
Description: At 30 hpf, Tg(cyp1a:egfp) embryos were placed in a 2-mL screw-capped glass vial with five embryos per vial. Each vial contained 1 mL of E3 media (5 mM NaCl, 0.17 mM KCl, 0.33 mM CaCl2·2H2O and 0.4 mM MgCl2·6H2O, pH 7.2) and supplemented with 2 nM TCDD (1746-01-6; AccuStandard Inc., New Haven, NH, USA) dissolved in DMSO. The compounds were subsequently diluted and individually introduced into the vials, achieving a final concentration of 0.1% DMSO. The embryos were then incubated for 48 h and then embryonic EGFP expression was evaluated using a fluorescent stereomicroscope (SteREO Discovery V8; Zeiss, Oberkochen, BW, Germany). As a positive control, StemRegenin1 (72342, […] Technologies, Vancouver, BC, Canada) was employed.
To evaluate AhR antagonistic activity, we conducted an AhR antagonist assay using transgenic zebrafish. Zebrafish have garnered significant attention as model organisms for drug discovery because they share metabolic pathways with mammals. […] Therefore, we synthesized more meta substituted phenyl derivatives. […] We also synthesized heteroaromatic derivatives including pyrimidine and pyridine at 5-position; however, their activities were decreased.

CC(C)n1cc2nc(-c3cc(F)cc(F)c3)nc(NCCc3c[nH]c4ccccc34)c2n1 [Compound 7k, N-(2-(1H-indol-3-yl)ethyl)-5-(3,5-difluorophenyl)-2-isopropyl-2H-pyrazolo [4,3-d]pyrimidin-7-amine]
CTL-mediated killing activity against MC38-luc cells [1]: minimal killing activity | AhR expression in the nucleus [2]: decreased AhR expression in the nucleus | Bcl-2 expression [3]: downregulation of Bcl-2 | cleaved poly (ADP-ribose) polymerase and cleaved caspase 3 [3]: upregulation of cleaved poly (ADP-ribose) polymerase and cleaved caspase 3 | p21 expression [3]: increase in p21 | p53 expression [3]: upregulation of p53 | colony formation ability [4]: significant decrease in the colony formation ability | cell proliferation / viability of colorectal cancer cells [5]: dose-dependent decrease in cell proliferation | PD-L1 expression [6]: dose-dependent downregulation of PD-L1 expression | AhR antagonistic activity in zebrafish, in words ([7]; Tg(cyp1a:egfp) zebrafish, EGFP readout): significant antagonistic activity against AhR | AhR Antagonist Activity at 100 nM ([7]; extent of GFP reduction in Tg(cyp1a:egfp) zebrafish compared to the TCDD (2 nM) control, 100 nM, 48 h): +++++
